Source: US20240293558A1, “KRAS INHIBITOR CONJUGATES” (Erasca, Inc., priority 2021, published 2024)
Read-outs that look alike come from different tables or passages of the source.

How the values were obtained:
[1] = biological target: T1, KRas G12D fused to HiBiT peptide (Homo sapiens, UniProt P01116, G12D); assay: ASPC-1 HiBit assay to determine G12D degradation; type: cell-based; details: AsPC-1 HiBiT cells, 24-hour incubation; read-out: ASPC-1 HiBit DC50 (C)
T1 construct: endogenous in cells; host or cells: AsPC-1 HiBiT knock-in single clone (Cas9 RNP + ssODN)
Experimental: Compounds presented herein induce degradation of the KRas G12D (KRasG12D) upon treatment of engineered cancer cell line.
The degradation of the KRasG12D in cellular environment was measured using engineered homozygous KRasG12D AsPC-1 cell line in which KRas G12D was fused to luminescent HiBiT peptide at the N-terminal. The small (1.3 kDa) HiBiT peptide complements with high affinity to a larger (18 kDa) subunit evolved from NanoLuc (termed LgBiT). The resulting complex (i.e., reconstituted luciferase enzyme) generates bright luminescence that translates to high sensitivity (1 amol), broad dynamic range (four orders of magnitude), and rapid kinetics for real time quantitation.
To generate HiBit KRasG12D knock-in cell line, sgRNA (SEQ. ID NO: 1) and ssODN (SEQ. ID NO: 2) were designed and synthesized at GenScript.
RNP complex was generated by mixing of 100 pmol of Cas9 protein to PCR tubes containing 300 pmol sgRNA incubating the resultant complex at room temperature for 20 min. […] ssODN was added to RNP complex slowly and RNP-ssODN complex was incubated at room temperature for 10 min. RNP-ssODN complex was mixed with […] of AsPC-1 cells (1×10^6 cells total) and electroporated using Nucleofactor (Program CM-150). Cells were then incubated at ambient temperature for 5 min and transferred to a six-well plate containing 2 ml growth medium.
To select pools with the highest luminescence signal, 10^4 cells of parental AsPC-1 and transfected pools were plated in solid white 384-well tissue culture plates. 24 hours after seeding, HiBiT was detected using the Nano-Glo HiBiT Lytic Detection System (Promega) following manufacturer's instructions. Briefly, […] of Nano-Glo HiBiT Lytic Detection Reagent was added directly to the cells and mixed by inversion before recording luminescence on an Envision (Perkin-Elmer) with 0.5 s integration time.
Single clones were isolated from stable pool by limited dilution method and presence of HiBiT knock-in was verified by TA cloning and subsequent sequencing. Additionally, western blotting analysis was conducted to confirm selection of single clones with high luminescence signal.
For DC50S measurements, AsPC-1 HiBiT single clone cells were grown in RPMI 1640 medium (Invitrogen 22400-089) supplemented with 10% fetal bovine serum. Cells were seeded in 384-well tissue culture plates at a density of 7,000 cells/well and allowed to attach for 24 hours.
Test compounds were distributed directly into assay plate with the adjustment for DMSO concentration using Tecan HP D300e. For most of the experiments, the final concentration of compounds starts from 10 μM, 3-fold dilution dose response and 10 doses. […] DMSO final concentration is 1%. Each concentration of exemplary compound was tested as singleton. The negative control wells were cells with DMSO only, and the positive control wells were cells with […] inhibitor.
Following 24-hour incubation with the compounds plate and Nano-Glo® HiBiT Lytic reagents were equilibrated to room temperature. 20 μL of HiBiT Lytic reagent were added to each well. The assay plate was incubated on digital microplate shaker (350 rpm) for 20 min followed by centrifugation at 500 g for 1 min. Luminescence was recorded using Envision (Perkin-Elmer) using aperture 384-L1 with 0.1 s integration time.
HiBiT signal are used to calculate the % degradation at given compound concentration using the following formula:
% Degradation=(1−(Sample HiBiT signal−Ave Min signal)/(Ave Max signal−Ave Min signal))*100%
For DC50 calculation, the data with the hook effect were removed first and DC50S was reported using a 4-parameter fit of dose response curve using GraphPad in those cases where maximum % degradation was >50% and Minimal % degradation was <50%. The decrease in DC50 reflects that the exemplary compound led to a higher level of degradation of KRasG12D than another exemplary compound at specific timepoint of treatment of cancer cell line. […]

[2] = biological target: T2, KRAS (WT) (Homo sapiens, UniProt P01116); assay: In-vitro RAS-RAF binding assay (RRB), HTRF/FRET; type: biochemical; details: read-out: Inhibition of RAS-RAF Binding (in-vitro) KRAS (WT) IC50
T2 construct: Biotinylated KRAS protein amino acids 1-169 (produced at Erasca); made in house
Method in brief: (§1)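 Biotinylated KRAS 1-169 (streptavidin-terbium donor, 30 nM) and GST-cRAF RBD (anti-GST d2 acceptor, 30 nM) in HEPES pH 7.5, NaCl, MgCl2, DTT buffer. After compound incubation, SOS1 catalytic domain plus GTPgS drive 60 min nucleotide exchange. HTRF FRET read at equilibrium, in duplicate.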

[3] = biological target: KRAS G12D (Homo sapiens, UniProt P01116, G12D); assay: In-vitro RAS-RAF binding assay (RRB), HTRF/FRET; type: biochemical; parameters: Biotinylated KRAS protein amino acids 1-169 (produced at Erasca); made in house; details: read-out: Inhibition of RAS-RAF Binding (in-vitro) KRAS (G12D) IC50
Method in brief: as §1

[4] = Table 2, average of multiple runs of each compound

T2 sequence (P01116 1-169 isoform P01116-2): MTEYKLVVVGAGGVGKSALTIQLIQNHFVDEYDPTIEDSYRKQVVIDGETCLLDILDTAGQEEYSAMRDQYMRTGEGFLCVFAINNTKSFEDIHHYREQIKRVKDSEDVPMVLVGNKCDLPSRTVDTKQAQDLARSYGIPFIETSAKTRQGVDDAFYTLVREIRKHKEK
T1 sequence (P01116 1-188 isoform P01116-2 G12D): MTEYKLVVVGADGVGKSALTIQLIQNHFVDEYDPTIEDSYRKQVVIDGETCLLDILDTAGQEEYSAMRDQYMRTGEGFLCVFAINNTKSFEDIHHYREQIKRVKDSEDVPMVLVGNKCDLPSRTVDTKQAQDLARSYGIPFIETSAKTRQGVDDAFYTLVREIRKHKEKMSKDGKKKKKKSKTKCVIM
Chain of KRAS G12D (P01116 1-169 isoform P01116-2 G12D): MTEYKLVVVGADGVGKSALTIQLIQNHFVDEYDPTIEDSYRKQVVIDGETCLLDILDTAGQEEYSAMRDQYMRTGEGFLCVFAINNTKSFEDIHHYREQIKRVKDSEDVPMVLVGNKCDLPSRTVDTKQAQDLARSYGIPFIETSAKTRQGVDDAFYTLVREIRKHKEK

Structure (SMILES)	DC50 [1] [nM]	IC50 [2, 4] [nM]	IC50 [3, 4] [nM]	IC50 ([2]; Table 1) [nM]	IC50 ([3]; Table 1) [nM]
C[C@H](NC(=O)[C@@H]1C[C@@H](O)CN1C(=O)[C@@H](NC(=O)CCOCCCN1CCC[C@H]1COc1nc(N2CC3CCC(C2)N3)c2cc(Cl)c(-c3ccc(F)c4sc(N)c(C#N)c34)c(F)c2n1)C(C)(C)C)c1ccc(-c2c(F)cc(F)cc2F)cc1 (single isomer, unassigned) [Example 97]	135	30	8.6	–	–
C#Cc1c(F)ccc2cc(O)cc(-c3ncc4c(N5CC6CCC(C5)N6)nc(OCCN5CCC(COc6cc([C@H](C(=O)N7C[C@H](O)C[C@H]7C(=O)N[C@@H](C)c7ccc(-c8c(F)cccc8F)cc7)C(C)C)on6)CC5)nc4c3F)c12 [Example 15, (2S,4R)-1-((2R)-2-(3-((1-(2-((4-(3,8-diazabicyclo[3.2.1]octan-3-yl)-7-(8-ethynyl-7-fluoro-3-hydroxynaphthalen-1-yl)-8-fluoropyrido[4,3-d]pyrimidin-2-yl)oxy)ethyl)piperidin-4-yl)methoxy)isoxazol-5-yl)-3-methylbutanoyl)-N—((S)-1-(2′,6′-difluoro-[1,1′-biphenyl]-4-yl)ethyl)-4-hydroxypyrrolidine-2-carboxamide]	112	1320	12.7	–	–
C#Cc1c(F)ccc2cc(O)cc(-c3ncc4c(N5CC6CCC(C5)N6)nc(OCCN5CCC6(CC5)CN(c5cc([C@H](C(=O)N7C[C@H](O)C[C@H]7C(=O)N[C@@H](C)c7ccc(-c8c(F)cccc8F)cc7)C(C)C)on5)C6)nc4c3F)c12 [Example 16, (2S,4R)-1-[(2R)-2-[3-[7-[2-[4-(3,8-diazabicyclo[3.2.1]octan-3-yl)-7-(8-ethynyl-7-fluoro-3-hydroxy-1-naphthyl)-8-fluoro-pyrido[4,3-d]pyrimidin-2-yl]oxyethyl]-2,7-diazaspiro[3.5]nonan-2-yl]isoxazol-5-yl]-3-methyl-butanoyl]-N-[(1S)-1-[4-(2,6-difluorophenyl)phenyl]ethyl]-4-hydroxy-pyrrolidine-2-carboxamide]	69.7	940	9.79	–	–
CC(C)[C@@H](C(=O)N1C[C@H](O)C[C@H]1C(=O)N[C@@H](C)c1ccc(-c2c(F)cccc2F)cc1)c1cc(OCC2CCN(CCOc3nc(N4CC5CCC(C4)N5)c4cc(Cl)c(-c5ccc(F)c6sc(N)c(C#N)c56)c(F)c4n3)CC2)no1 [Example 17, (2S,4R)-1-((2R)-2-(3-((1-(2-((7-(2-amino-3-cyano-7-fluorobenzo[b]thiophen-4-yl)-4-(3,8-diazabicyclo[3.2.1]octan-3-yl)-6-chloro-8-fluoroquinazolin-2-yl)oxy)ethyl)piperidin-4-yl)methoxy)isoxazol-5-yl)-3-methylbutanoyl)-N—((S)-1-(2′,6′-difluoro-[1,1′-biphenyl]-4-yl)ethyl)-4-hydroxypyrrolidine-2-carboxamide]	244	2830	15.6	–	–

The next lines start with the values.

DC50 [1] [nM]	IC50 [2, 4] [nM]	IC50 [3, 4] [nM]	IC50 ([2]; Table 1) [nM]	IC50 ([3]; Table 1) [nM]	Structure (SMILES)
467	196	12.1	–	–	C#Cc1c(F)ccc2cc(O)cc(-c3ncc4c(N5CC6CCC(C5)N6)nc(OCCN5CCC(COc6cc(C(C(=O)N7C[C@H](O)C[C@H]7C(=O)N[C@@H](C)c7ccc(-c8scnc8C)cc7)C(C)C)on6)CC5)nc4c3F)c12 (stereo in doubt) [Example 35, (2S,4R)-1-((2R)-2-(3-((1-(2-((4-(3,8-diazabicyclo[3.2.1]octan-3-yl)-7-(8-ethynyl-7-fluoro-3-hydroxynaphthalen-1-yl)-8-fluoropyrido[4,3-d]pyrimidin-2-yl)oxy)ethyl)piperidin-4-yl)methoxy)isoxazol-5-yl)-3-methylbutanoyl)-4-hydroxy-N—((S)-1-(4-(4-methylthiazol-5-yl)phenyl)ethyl)pyrrolidine-2-carboxamide]
77.5	86.8	11.2	86.8	11.3	C[C@H](NC(=O)[C@@H]1C[C@@H](O)CN1C(=O)[C@@H](NC(=O)CCOCCCN1CCCC1COc1nc(N2CC3CCC(C2)N3)c2cc(Cl)c(-c3ccc(F)c4sc(N)c(C#N)c34)c(F)c2n1)C(C)(C)C)c1ccc(-c2c(F)cccc2F)cc1 (stereo partly drawn) [Example 12, (2S,4R)-1-[(2S)-2-[3-[3-[2-[[7-(2-amino-3-cyano-7-fluoro-benzothiophen-4-yl)-6-chloro-4-(3,8-diazabicyclo[3.2.1]octan-3-yl)-8-fluoro-quinazolin-2-yl]oxymethyl]pyrrolidin-1-yl]propoxy]propanoylamino]-3,3-dimethyl-butanoyl]-N-[(1S)-1-[4-(2,6-difluorophenyl)phenyl]ethyl]-4-hydroxy-pyrrolidine-2-carboxamide]
444	49.1	13.6	49	13.6	C#Cc1c(F)ccc2cc(O)cc(-c3ncc4c(N5CC6CCC(C5)N6)nc(OC[C@@H]5CCCN5CCCOCCC(=O)N[C@H](C(=O)N5C[C@H](O)C[C@H]5C(=O)N[C@@H](C)c5ccc(-c6scnc6C)cc5)C(C)(C)C)nc4c3F)c12 [Example 13, (2S,4R)-1-[(2S)-2-[3-[3-[(2S)-2-[[4-(3,8-diazabicyclo[3.2.1]octan-3-yl)-7-(8-ethynyl-7-fluoro-3-hydroxy-1-naphthyl)-8-fluoro-pyrido[4,3-d]pyrimidin-2-yl]oxymethyl]pyrrolidin-1-yl]propoxy]propanoylamino]-3,3-dimethyl-butanoyl]-4-hydroxy-N-[(1S)-1-[4-(4-methylthiazol-5-yl)phenyl]ethyl]pyrrolidine-2-carboxamide]
331	41.9	9.4	41.9	9.4	C#Cc1c(F)ccc2cc(O)cc(-c3ncc4c(N5CC6CCC(C5)N6)nc(OC[C@@H]5CCCN5CCCOCCC(=O)N[C@H](C(=O)N5C[C@H](O)C[C@H]5C(=O)N[C@@H](C)c5ccc(-c6c(F)cccc6F)cc5)C(C)(C)C)nc4c3F)c12 [Example 14, (2S,4R)-1-[(2S)-2-[3-[3-[(2S)-2-[[4-(3,8-diazabicyclo[3.2.1]octan-3-yl)-7-(8-ethynyl-7-fluoro-3-hydroxy-1-naphthyl)-8-fluoro-pyrido[4,3-d]pyrimidin-2-yl]oxymethyl]pyrrolidin-1-yl]propoxy]propanoylamino]-3,3-dimethyl-butanoyl]-N-[(1S)-1-[4-(2,6-difluorophenyl)phenyl]ethyl]-4-hydroxy-pyrrolidine-2-carboxamide]
